Data: PubChem BioAssay AID2060496 (Molecular Pharmacology Branch, DTP, NCI, 2025)
pIC50: −log10 of the molar value.

Test system: 276233-004-R-J1-PDC complex spheroid viability
Experiment: Anticancer human tumor 276233-004-R-J1-PDC patient-derived colon adenocarcinoma cell line growth inhibition [GQUAD]
Conditions: for pIC50: curve of first compound; for viability, T/C: stronger effect = lower value; active = viability on the fitted dose curve at most 10% of control; inactive = the rest
Summary of the method: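 Tumor cells were grown as complex spheroids with HUVEC endothelial cells and mesenchymal stem cells as stroma. G-quadruplex stabilizers were combined with targeted agents over half-log dilutions from near the clinical Cmax, or from 10 microM.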
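Note: spheroids exposed to drugs for seven days.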
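Throughout, for viability, T/C: 100% = DMSO vehicle control viability.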

C#Cc1c(F)ccc2cc(O)cc(-c3ncc4c(N5CC6CCC(C5)N6)nc(OCC56CCCN5CC(F)C6)nc4c3F)c12 (configuration not stated) + CN(C)c1ccc(Nc2c3ccc(NC(=O)CCN4CCCC4)cc3nc3cc(NC(=O)CCN4CCCC4)ccc23)cc1
5.48: pIC50 (second compound 0.0316 µM)
5.89: pIC50 (second compound 0.316 µM)
6.43: pIC50 (second compound 1 µM)
inactive: viability, T/C (second compound 0.0316 µM, first compound 0.0316 µM) 90.1% | viability, T/C (second compound 0.0316 µM, first compound 0.1 µM) 79% | viability, T/C (second compound 0.0316 µM, first compound 0.316 µM) 101% | viability, T/C (second compound 0.0316 µM, first compound 1 µM) 75.6% | viability, T/C (second compound 0.0316 µM, first compound 3.16 µM) 52% | viability, T/C (second compound 0.0316 µM, first compound 10 µM) 36.9% | viability, T/C (second compound 0.1 µM, first compound 0.0316 µM) 78.7% | viability, T/C (second compound 0.1 µM, first compound 0.1 µM) 74.2% | viability, T/C (second compound 0.1 µM, first compound 0.316 µM) 56.4% | viability, T/C (second compound 0.1 µM, first compound 1 µM) 56.8% | viability, T/C (second compound 0.1 µM, first compound 3.16 µM) 54.8% | viability, T/C (second compound 0.1 µM, first compound 10 µM) 42.2% | viability, T/C (second compound 0.316 µM, first compound 0.0316 µM) 54.7% | viability, T/C (second compound 0.316 µM, first compound 0.1 µM) 47.2% | viability, T/C (second compound 0.316 µM, first compound 0.316 µM) 57.1% | viability, T/C (second compound 0.316 µM, first compound 1 µM) 54.2% | viability, T/C (second compound 0.316 µM, first compound 3.16 µM) 39% | viability, T/C (second compound 0.316 µM, first compound 10 µM) 30.1% | viability, T/C (second compound 1 µM, first compound 0.0316 µM) 65% | viability, T/C (second compound 1 µM, first compound 0.1 µM) 54.8% | viability, T/C (second compound 1 µM, first compound 0.316 µM) 54.9% | viability, T/C (second compound 1 µM, first compound 1 µM) 40.4% | viability, T/C (second compound 1 µM, first compound 3.16 µM) 49.1% | viability, T/C (second compound 1 µM, first compound 10 µM) 42% | viability, T/C (second compound 3.16 µM, first compound 0.0316 µM) 51.2% | viability, T/C (second compound 3.16 µM, first compound 0.1 µM) 40% | viability, T/C (second compound 3.16 µM, first compound 0.316 µM) 36.5% | viability, T/C (second compound 3.16 µM, first compound 1 µM) 39.2% | viability, T/C (second compound 3.16 µM, first compound 3.16 µM) 39.1% | viability, T/C (second compound 3.16 µM, first compound 10 µM) 35.1% | viability, T/C (second compound 10 µM, first compound 0.0316 µM) 43.6% | viability, T/C (second compound 10 µM, first compound 0.1 µM) 43.7% | viability, T/C (second compound 10 µM, first compound 0.316 µM) 40.2% | viability, T/C (second compound 10 µM, first compound 1 µM) 40.7% | viability, T/C (second compound 10 µM, first compound 3.16 µM) 36.6% | viability, T/C (second compound 10 µM, first compound 10 µM) 27.4%
5.50: pIC50 (second compound 0.1 µM)
> 7.50: pIC50 (second compound 3.16 µM) | pIC50 (second compound 10 µM)
